Assay [1] has as its target T1, MtuUng (Mycobacterium tuberculosis uracil DNA glycosylase) (Mycobacterium tuberculosis, UniProt P9WFQ9).
T1 sequence (P9WFQ9 1-227): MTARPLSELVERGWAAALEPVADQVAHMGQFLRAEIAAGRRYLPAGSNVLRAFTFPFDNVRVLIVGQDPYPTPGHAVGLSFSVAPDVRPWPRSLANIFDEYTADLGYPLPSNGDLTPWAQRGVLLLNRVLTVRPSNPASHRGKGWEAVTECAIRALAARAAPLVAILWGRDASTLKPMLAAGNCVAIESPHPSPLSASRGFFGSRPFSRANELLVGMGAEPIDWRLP
The assay can be described thus: Molecular beacon fluorescence assay of MtuUng activity and inhibition. The class given is biochemical.

For assay [2], the system named is uracil DNA glycosylase. To be noted: cited from earlier work.

The structures appear in SMILES notation.

In assay [1], `Nc1c[nH]c(=O)[nH]c1=O` [5-Amino-Uracil] had an IC50 of 7.18 ± 0.97 mM. In assay [1], `O=c1[nH]cc(F)c(=O)[nH]1` [5-Fluoro-Uracil] returned an IC50 of 50.2 ± 3.85 mM. In assay [1], `O=c1cc[nH]c(=O)[nH]1` [Uracil] had a 50% inhibitory concentration (IC50) of 2.05 ± 0.3 mM. In addition, the mode of inhibition result in assay [2] is given as “non-competitive”.

As to `O=c1[nH]cc(I)c(=O)[nH]1` [5-Iodo-Uracil], in assay [1], the half-inhibitory concentration (IC50) came out at 4.92 ± 0.51 mM. Compound `O=C1CC(=O)NC(=O)N1` [Barbituric acid] returned an IC50 in assay [1] of 7.29 ± 0.32 mM. In turn, `O=[N+]([O-])c1cnc(O)nc1O` [5-Nitro-Uracil] came in with an IC50 in assay [1] of 10.8 ± 0.32 mM.

In assay [1], `O=c1[nH]cc(Cl)c(=O)[nH]1` [5-Chloro-Uracil] showed an IC50 of 8.71 ± 0.7 mM and a Ki of 7.04 mM. In addition, the “type of inhibition (Lineweaver-Burk plot)” value in assay [1] (different inhibitor concentrations, 0.3 nM MtuUng) was “linear mixed inhibition”.

In turn, `O=c1[nH]cc(Br)c(=O)[nH]1` [5-Bromo-Uracil] had a 50% inhibitory concentration (IC50) in assay [1] of 13.6 ± 0.73 mM.

In the case of `O=c1[nH]ccc(=S)[nH]1` [4-Thio-Uracil], in assay [1], half-maximal inhibition (IC50) was put at 3.57 ± 0.35 mM.

For orientation: IC50 means the concentration needed to halve the response being measured. The Ki is the equilibrium dissociation constant of an inhibitor or competing ligand from its target.

(Values after publication PMC7900708 (Biochemistry and Biophysics Reports, 2021).)
